In ChEMBL document CHEMBL1649287, “Postantibiotic effect of ceftaroline against gram-positive organisms” (2009):
Values after ≈ are worked out from the molar mass of the structure shown.

Columns and labels:
Type in all cases: functional
Enterococcus faecalis [1] = assay: Antimicrobial activity against vancomycin-resistant Enterococcus faecalis 609 assessed as time required to induce sub-MIC effect at 0.2 times MIC after 1 hr by plate counting method; details: Enterococcus faecalis, 609, 1 h
Staphylococcus aureus [2] = assay: Antimicrobial activity against methicillin-resistant, vancomycin-hetroresistant Staphylococcus aureus 618 by microdilution method
Streptococcus pneumoniae [3] = assay: Antimicrobial activity against Penicillin-intermediate Streptococcus pneumoniae s1234 by microdilution method
Enterococcus faecalis [4] = assay: Antimicrobial activity against vancomycin-sensitive Enterococcus faecalis 20 assessed as time required to induce sub-MIC effect at 0.4 times MIC after 1 hr by plate counting method; details: Enterococcus faecalis, 20, 1 h
Streptococcus pneumoniae [5] = assay: Antimicrobial activity against Penicillin-susceptible Streptococcus pneumoniae ATCC 49617 assessed as time required to induce post antibiotic sub-MIC effect at 0.4 times MIC after 1 hr by plate counting method; details: ATCC 49617, 1 h
Enterococcus faecalis [6] = assay: Antimicrobial activity against vancomycin-resistant Enterococcus faecalis 266 assessed as time required to induce sub-MIC effect at 0.4 times MIC after 1 hr by plate counting method; details: Enterococcus faecalis, 266, 1 h
Staphylococcus aureus [7] = assay: Antimicrobial activity against methicillin-susceptible, vancomycin-susceptible Staphylococcus aureus ATCC 29213 assessed as time required to induce post antibiotic sub-MIC effect at 0.2 times MIC after 1 hr by plate counting method; details: ATCC 29213, 1 h
Staphylococcus aureus [8] = assay: Antimicrobial activity against methicillin-resistant, vancomycin-intermediate Staphylococcus aureus 510 assessed as time required to induce post antibiotic sub-MIC effect at 0.2 times MIC after 1 hr by plate counting method; details: Staphylococcus aureus, 510, 1 h
Streptococcus pneumoniae [9] = assay: Antimicrobial activity against Penicillin-, erythromycin-resistant Streptococcus pneumoniae 37 assessed as time required to induce post antibiotic sub-MIC effect at 0.4 times MIC after 1 hr by plate counting method; details: Streptococcus pneumoniae, 37, 1 h
Enterococcus faecalis [10] = assay: Antimicrobial activity against vancomycin-resistant Enterococcus faecalis 609 assessed as time required to induce sub-MIC effect at 0.4 times MIC after 1 hr by plate counting method; details: Enterococcus faecalis, 609, 1 h
Streptococcus pneumoniae [11] = assay: Antimicrobial activity against Penicillin-susceptible Streptococcus pneumoniae ATCC 49617 assessed as time required to induce sub-MIC effect at 0.3 times MIC after 1 hr by plate counting method; details: ATCC 49617, 1 h
Streptococcus pneumoniae [12] = assay: Antimicrobial activity against Penicillin-susceptible Streptococcus pneumoniae s502 assessed as post antibiotic effect at 10 times MIC after 1 hr by plate counting method; details: s502, 1 h
Streptococcus pneumoniae [13] = assay: Antimicrobial activity against Penicillin-susceptible Streptococcus pneumoniae s502 assessed as time required to induce sub-MIC effect at 0.4 times MIC after 1 hr by plate counting method; details: s502, 1 h
Staphylococcus aureus [14] = assay: Antimicrobial activity against methicillin-susceptible, vancomycin-susceptible Staphylococcus aureus ATCC 29213 by microdilution method
Enterococcus faecalis [15] = assay: Antimicrobial activity against vancomycin-resistant Enterococcus faecalis 609 assessed as post antibiotic effect at 10 times MIC after 1 hr by plate counting method; details: Enterococcus faecalis, 609, 1 h
Staphylococcus aureus [16] = assay: Antimicrobial activity against methicillin-resistant, vancomycin-susceptible Staphylococcus aureus vs1 assessed as post antibiotic effect at 10 times MIC after 1 hr by plate counting method; details: vs1, 1 h
Staphylococcus aureus [17] = assay: Antimicrobial activity against methicillin-susceptible, vancomycin-susceptible Staphylococcus aureus ATCC 29213 assessed as post antibiotic effect at 10 times MIC after 1 hr by plate counting method; details: ATCC 29213, 1 h
Staphylococcus aureus [18] = assay: Antimicrobial activity against methicillin-resistant, vancomycin-intermediate Staphylococcus aureus 510 by microdilution method
Streptococcus pneumoniae [19] = assay: Antimicrobial activity against Penicillin-intermediate Streptococcus pneumoniae s1234 assessed as time required to induce post antibiotic sub-MIC effect at 0.2 times MIC after 1 hr by plate counting method; details: s1234, 1 h
Streptococcus pneumoniae [20] = assay: Antimicrobial activity against Penicillin-, erythromycin-resistant Streptococcus pneumoniae 37 assessed as time required to induce sub-MIC effect at 0.4 times MIC after 1 hr by plate counting method; details: Streptococcus pneumoniae, 37, 1 h
Staphylococcus aureus [21] = assay: Antimicrobial activity against methicillin-resistant, vancomycin-susceptible Staphylococcus aureus vs1 assessed as time required to induce post antibiotic sub-MIC effect at 0.3 times MIC after 1 hr by plate counting method; details: vs1, 1 h
Enterococcus faecalis [22] = assay: Antimicrobial activity against vancomycin-sensitive Enterococcus faecalis ATCC 29212 by microdilution method
Staphylococcus aureus [23] = assay: Antimicrobial activity against methicillin-susceptible, vancomycin-susceptible Staphylococcus aureus ATCC 29213 assessed as time required to induce post antibiotic sub-MIC effect at 0.3 times MIC after 1 hr by plate counting method; details: ATCC 29213, 1 h
Streptococcus pneumoniae [24] = assay: Antimicrobial activity against Penicillin-intermediate Streptococcus pneumoniae s1234 assessed as time required to induce post antibiotic sub-MIC effect at 0.3 times MIC after 1 hr by plate counting method; details: s1234, 1 h
Enterococcus faecalis [25] = assay: Antimicrobial activity against vancomycin-sensitive Enterococcus faecalis 20 assessed as time required to induce sub-MIC effect at 0.3 times MIC after 1 hr by plate counting method; details: Enterococcus faecalis, 20, 1 h
Enterococcus faecalis [26] = assay: Antimicrobial activity against vancomycin-sensitive Enterococcus faecalis 10 assessed as time required to induce post antibiotic sub-MIC effect at 0.2 times MIC after 1 hr by plate counting method; details: Enterococcus faecalis, 10, 1 h
Staphylococcus aureus [27] = assay: Antimicrobial activity against methicillin-susceptible, vancomycin-susceptible Staphylococcus aureus ATCC 29213 assessed as time required to induce post antibiotic sub-MIC effect at 0.4 times MIC after 1 hr by plate counting method; details: ATCC 29213, 1 h
Staphylococcus aureus [28] = assay: Antimicrobial activity against methicillin-susceptible, vancomycin-susceptible Staphylococcus aureus sox1 assessed as time required to induce post antibiotic sub-MIC effect at 0.2 times MIC after 1 hr by plate counting method; details: sox1, 1 h
Enterococcus faecalis [29] = assay: Antimicrobial activity against vancomycin-sensitive Enterococcus faecalis 10 assessed as time required to induce post antibiotic sub-MIC effect at 0.3 times MIC after 1 hr by plate counting method; details: Enterococcus faecalis, 10, 1 h
Staphylococcus aureus [30] = assay: Antimicrobial activity against methicillin-resistant, vancomycin-resistant Staphylococcus aureus 770 assessed as time required to induce sub-MIC effect at 0.4 times MIC after 1 hr by plate counting method; details: Staphylococcus aureus, 770, 1 h
Enterococcus faecalis [31] = assay: Antimicrobial activity against vancomycin-sensitive Enterococcus faecalis ATCC 29212 assessed as time required to induce post antibiotic sub-MIC effect at 0.3 times MIC after 1 hr by plate counting method; details: ATCC 29212, 1 h
Staphylococcus aureus [32] = assay: Antimicrobial activity against methicillin-resistant, vancomycin-hetroresistant Staphylococcus aureus 618 assessed as post antibiotic effect at 10 times MIC after 1 hr by plate counting method; details: Staphylococcus aureus, 618, 1 h
Enterococcus faecalis [33] = assay: Antimicrobial activity against vancomycin-sensitive Enterococcus faecalis 10 assessed as time required to induce sub-MIC effect at 0.4 times MIC after 1 hr by plate counting method; details: Enterococcus faecalis, 10, 1 h
Enterococcus faecalis [34] = assay: Antimicrobial activity against vancomycin-sensitive Enterococcus faecalis ATCC 29212 assessed as time required to induce sub-MIC effect at 0.3 times MIC after 1 hr by plate counting method; details: ATCC 29212, 1 h
Enterococcus faecalis [35] = assay: Antimicrobial activity against vancomycin-sensitive Enterococcus faecalis 20 assessed as time required to induce post antibiotic sub-MIC effect at 0.2 times MIC after 1 hr by plate counting method; details: Enterococcus faecalis, 20, 1 h

CCO/N=C(\C(=O)N[C@@H]1C(=O)N2C(C(=O)[O-])=C(Sc3nc(-c4cc[n+](C)cc4)cs3)CS[C@H]12)c1nsc(NP(=O)(O)O)n1 [CEFTAROLINE FOSAMIL] was tested, and the time (Enterococcus faecalis [1]) was 1.4 h, the MIC (Staphylococcus aureus [2]) was 2 µg/mL (≈ 2.92 µM) and the MIC (Streptococcus pneumoniae [3]) was 0.12 µg/mL (≈ 0.175 µM). It also gave a PAE (Enterococcus faecalis [4]) of 3.6 h, a PAE (Streptococcus pneumoniae [5]) of 7.2 h and a time (Enterococcus faecalis [6]) of 9.5 h. The PAE (Staphylococcus aureus [7]) was 2.5 h, the time (Staphylococcus aureus [8]) was 5.4 h and the time (Streptococcus pneumoniae [9]) was 3.7 h. The time (Enterococcus faecalis [10]) was 2.2 h, the PAE (Streptococcus pneumoniae [11]) was 0.7 h and the PAE (Streptococcus pneumoniae [12]) was 1.8 h. For the same compound, the PAE (Streptococcus pneumoniae [13]) was 2.5 h, the MIC (Staphylococcus aureus [14]) was 0.25 µg/mL (≈ 0.365 µM) and the PAE (Enterococcus faecalis [15]) was 0.2 h. The PAE (Staphylococcus aureus [16]) was 1.2 h, the PAE (Staphylococcus aureus [17]) was 1 h and the MIC (Staphylococcus aureus [18]) was 0.5 µg/mL (≈ 0.73 µM). For the same compound, the PAE (Streptococcus pneumoniae [19]) was 1.4 h, the time (Streptococcus pneumoniae [20]) was 0.5 h and the time (Staphylococcus aureus [21]) was 4.7 h. For the same compound, the MIC (Enterococcus faecalis [22]) was 1 µg/mL (≈ 1.46 µM), the PAE (Staphylococcus aureus [23]) was 4.5 h and the PAE (Streptococcus pneumoniae [24]) was 1.8 h. The PAE (Enterococcus faecalis [25]) was 1.3 h, the PAE (Enterococcus faecalis [26]) was 3.2 h and the PAE (Staphylococcus aureus [27]) was > 10.5 h. It also gave a time (Staphylococcus aureus [28]) of 2.2 h, a PAE (Enterococcus faecalis [29]) of 6.6 h and a time (Staphylococcus aureus [30]) of 0.6 h. For the same compound, the PAE (Enterococcus faecalis [31]) was > 10.6 h, the PAE (Staphylococcus aureus [32]) was 0.7 h and the time (Enterococcus faecalis [33]) was 1.8 h. The PAE (Enterococcus faecalis [34]) was 3.6 h and the PAE (Enterococcus faecalis [35]) was 4.1 h.
